From article PMC6230509 (Neuropharmacology, 2018)
Like-named read-outs stand apart in the source and are kept apart here.

What was measured:
[1] = target: D2 (Homo sapiens, UniProt P14416); test: NIMH PDSP radioligand competition binding, D2
[2] = target: serotonin transporter (SERT) (Homo sapiens, UniProt P31645); test: NIMH PDSP radioligand competition binding, SERT
[3] = target: κ-opioid receptor (KOR) (Homo sapiens, UniProt P41145); test: NIMH PDSP radioligand competition binding, KOR
[4] = target: 5-HT5A (Homo sapiens, UniProt P47898); test: NIMH PDSP radioligand competition binding, 5-HT5A
[5] = target: 5-HT6 (Homo sapiens, UniProt P50406); test: NIMH PDSP radioligand competition binding, 5-HT6
[6] = target: 5-HT2A (Homo sapiens, UniProt P28223); test: NIMH PDSP radioligand competition binding, 5-HT2A
[7] = target: T1, D4 (Homo sapiens, UniProt P21917); test: NIMH PDSP radioligand competition binding, D4
T1 sequence (P21917 1-419): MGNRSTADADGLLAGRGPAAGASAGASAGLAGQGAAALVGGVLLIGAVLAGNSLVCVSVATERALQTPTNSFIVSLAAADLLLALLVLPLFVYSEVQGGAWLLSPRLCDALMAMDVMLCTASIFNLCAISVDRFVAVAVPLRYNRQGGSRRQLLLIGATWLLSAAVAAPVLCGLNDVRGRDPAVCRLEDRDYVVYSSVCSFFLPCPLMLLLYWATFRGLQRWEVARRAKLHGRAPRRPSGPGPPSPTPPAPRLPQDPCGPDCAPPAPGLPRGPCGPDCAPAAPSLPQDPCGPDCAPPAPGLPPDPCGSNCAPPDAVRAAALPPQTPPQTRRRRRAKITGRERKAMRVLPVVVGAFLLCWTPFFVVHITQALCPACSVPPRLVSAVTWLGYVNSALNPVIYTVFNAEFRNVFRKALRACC

[8] = target: H2 (Homo sapiens, UniProt P25021); test: NIMH PDSP radioligand competition binding, H2
[9] = target: 5-HT1E (Homo sapiens, UniProt P28566); test: NIMH PDSP radioligand competition binding, 5-HT1E
[10] = target: dopamine transporter (DAT) (Homo sapiens, UniProt Q01959); test: NIMH PDSP radioligand competition binding, DAT
[11] = system: head twitch response (5-HT2A receptor-mediated); test: Head twitch response; format: in vivo, C57BL/6J mice; settings: for activity in the HTR assay (in words): C57BL/6J mice, IP, within the dose range tested; for ED50: Mus musculus, ip
[12] = target: 5-HT2B (Homo sapiens, UniProt P41595); test: NIMH PDSP radioligand competition binding, 5-HT2B
[13] = target: T2, σ2 (Rattus norvegicus, UniProt Q5U3Y7); test: NIMH PDSP radioligand competition binding, σ2
T2 sequence (Q5U3Y7 1-176): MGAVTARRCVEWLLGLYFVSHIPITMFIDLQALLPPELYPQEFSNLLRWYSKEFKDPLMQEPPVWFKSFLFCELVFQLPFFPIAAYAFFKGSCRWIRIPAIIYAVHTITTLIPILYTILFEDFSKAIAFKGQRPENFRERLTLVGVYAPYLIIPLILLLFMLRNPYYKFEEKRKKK

[14] = target: D3 (Homo sapiens, UniProt P35462); test: NIMH PDSP radioligand competition binding, D3
[15] = target: peripheral benzodiazepine receptor (PBR) (Rattus norvegicus, UniProt P16257); test: NIMH PDSP radioligand competition binding, PBR
[16] = target: T3, α1D (Homo sapiens, UniProt P25100); test: NIMH PDSP radioligand competition binding, α1D
T3 sequence (P25100 1-572): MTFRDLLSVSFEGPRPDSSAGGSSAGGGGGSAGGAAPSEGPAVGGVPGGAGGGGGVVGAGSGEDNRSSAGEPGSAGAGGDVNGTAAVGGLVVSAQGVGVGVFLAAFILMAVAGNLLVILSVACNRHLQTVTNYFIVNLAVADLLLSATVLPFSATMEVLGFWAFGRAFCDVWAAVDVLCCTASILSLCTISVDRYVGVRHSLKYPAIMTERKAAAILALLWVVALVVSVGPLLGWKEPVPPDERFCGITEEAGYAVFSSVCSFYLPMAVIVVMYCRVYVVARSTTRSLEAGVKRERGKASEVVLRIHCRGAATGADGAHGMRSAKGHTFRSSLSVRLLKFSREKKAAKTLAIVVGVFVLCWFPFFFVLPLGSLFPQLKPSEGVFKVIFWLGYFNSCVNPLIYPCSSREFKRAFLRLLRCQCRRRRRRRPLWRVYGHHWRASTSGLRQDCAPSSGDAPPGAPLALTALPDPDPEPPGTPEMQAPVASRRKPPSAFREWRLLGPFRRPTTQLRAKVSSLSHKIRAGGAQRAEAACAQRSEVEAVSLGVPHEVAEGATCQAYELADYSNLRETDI

[17] = target: δ-opioid receptor (DOR) (Homo sapiens, UniProt P41143); test: NIMH PDSP radioligand competition binding, DOR
[18] = target: T4, 5-HT2C (Homo sapiens, UniProt P28335); test: NIMH PDSP radioligand competition binding, 5-HT2C
T4 sequence (P28335 33-458): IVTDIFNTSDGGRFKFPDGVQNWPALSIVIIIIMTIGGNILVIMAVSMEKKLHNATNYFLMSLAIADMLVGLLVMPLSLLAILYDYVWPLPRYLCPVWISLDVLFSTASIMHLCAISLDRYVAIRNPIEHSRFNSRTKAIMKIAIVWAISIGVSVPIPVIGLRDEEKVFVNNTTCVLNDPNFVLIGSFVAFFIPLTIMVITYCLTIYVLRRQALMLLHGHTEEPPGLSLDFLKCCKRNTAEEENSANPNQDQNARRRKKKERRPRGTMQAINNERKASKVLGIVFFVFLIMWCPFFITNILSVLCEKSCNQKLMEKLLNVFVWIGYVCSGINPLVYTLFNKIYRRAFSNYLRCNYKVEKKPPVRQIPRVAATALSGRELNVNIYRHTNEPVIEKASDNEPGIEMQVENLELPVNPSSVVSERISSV

[19] = target: μ-opioid receptor (MOR) (Homo sapiens, UniProt P35372); test: NIMH PDSP radioligand competition binding, MOR
[20] = Binding Affinity (Ki, nM), [3H]N-methylspiperone, cloned human receptor
[21] = Binding Affinity (Ki, nM), [3H]tiotidine, cloned human receptor
[22] = 0.875 mg/kg IP, duration 30 min
[23] = read-out: ED50 (95% CI) (mg/kg)
[24] = read-out: ED50 (95% CI) (μmol/kg)
[25] = Binding Affinity (Ki, nM), PBR, [3H]PK11195, rat kidney, natively expressed
[26] = Binding Affinity (Ki, nM), DOR, [3H]DADLE, cloned human receptor

| SMILES | Ki [1] [µM] | Ki [2] [µM] | Ki [3] [µM] | Ki [4] [µM] | Ki [5] [µM] | Ki [6] [µM] | Ki [7, 20] [nM] | Ki [8, 21] [nM] | Ki [9] [µM] | Ki [10] [µM] | HTR Counts (mean ± SEM) [11, 22] | HTR Counts (mean ± SEM) ([11]; 1.75 mg/kg IP, duration 30 min) | Ki [12] [µM] | Ki [13] [µM] | Ki [14] [µM] | Ki [15, 25] [nM] | Ki [16] [µM] | Ki [17, 26] [nM] | Ki [18] [µM] | Ki [19] [µM] | further results |
| --- | --- | --- | --- | --- | --- | --- | --- | --- | --- | --- | --- | --- | --- | --- | --- | --- | --- | --- | --- | --- | --- |
| C=CCN(CC=C)CCc1c[nH]c2cccc(OC(C)=O)c12 [4-AcO-DALT, 4-acetoxy-N,N-diallyltryptamine] | > 10 | 1.09 | 5.23 | 5.84 | 1.79 | 0.565 | > 10000 | > 10000 | 0.467 | > 10 | 10.4 ± 1.4 | 42.0 ± 9.5 | 0.063 | > 10 | > 10 | > 10000 | > 10 | > 10000 | 1.52 | > 10 | HTR Counts (mean ± SEM) ([11]; 3.5 mg/kg IP, duration 30 min): 39.0 ± 14.1; HTR Counts (mean ± SEM) ([11]; 7 mg/kg IP, duration 30 min): 65.0 ± 8.4; HTR Counts (mean ± SEM) ([11]; 14 mg/kg IP, duration 30 min): 47.8 ± 10.0; activity in the HTR assay (in words) [11]: active; ED50 [11, 23]: 1.99 mg/kg; ED50 [11, 24]: 4.8 µmol/kg |
| C=CCN(CC=C)CCc1c(C)[nH]c2ccc(OC)cc12 [5-MeO-2-Me-DALT, 5-methoxy-2-methyl-N,N-diallyltryptamine] | > 10 | > 10 | 0.391 | 1.82 | 0.206 | 1.15 | > 10000 | > 10000 | 1.59 | 2.41 | 4.4 ± 0.2 | 7.4 ± 2.2 | 0.241 | 1.24 | 2.4 | > 10000 | 2.41 | > 10000 | > 10 | > 10 | displacement at 10,000 nM ([2]; SERT, [3H]citalopram, at 10,000 nM): < 50%; HTR Counts (mean ± SEM) ([11]; 3.5 mg/kg IP, duration 30 min): 4.2 ± 1.0; HTR Counts (mean ± SEM) ([11]; 7 mg/kg IP, duration 30 min): 4.2 ± 0.9; HTR Counts (mean ± SEM) ([11]; 14 mg/kg IP, duration 30 min): 5.0 ± 1.4; activity in the HTR assay (in words) ([11]; listed as 5-methoxy-2-methyl-DALT): did not induce the HTR |
| C=CCN(CC=C)CCc1c(C)[nH]c2ccc(F)cc12 [5-F-2-Me-DALT, 5-fluoro-2-methyl-N,N-diallyltryptamine] | 4.42 | 0.983 | 0.58 | 1.92 | 0.168 | 0.655 | > 10000 | > 10000 | 1.27 | 2.21 | 6.2 ± 1.0 | 6.8 ± 0.9 | 0.017 | 0.396 | 0.414 | > 10000 | > 10 | > 10000 | 0.541 | > 10 | SERT affinity, fold reduction by 2-methylation [2]: ~30 fold; HTR Counts (mean ± SEM) ([11]; 3.5 mg/kg IP, duration 30 min): 5.8 ± 2.5; HTR Counts (mean ± SEM) ([11]; 7 mg/kg IP, duration 30 min): 6.4 ± 1.6; HTR Counts (mean ± SEM) ([11]; 14 mg/kg IP, duration 30 min): 7.2 ± 0.8; activity in the HTR assay (in words) ([11]; listed as 5-fluoro-2-methyl-DALT): did not induce the HTR |
| C=CCN(CC=C)CCc1c[nH]c2c(CC)cccc12 [7-Et-DALT, 7-ethyl-N,N-diallyltryptamine] | > 10 | 0.795 | 0.58 | > 10 | > 10 | 1.52 | > 10000 | > 10000 | > 10 | 1.73 |  |  | 0.065 | 0.136 | 1.08 | > 10000 | > 10 | > 10000 | 0.443 | 2.67 | HTR Counts (mean ± SEM) ([11]; 15 mg/kg IP, duration 30 min): 9.8 ± 1.8; activity in the HTR assay (in words) [11]: did not induce the HTR |
| C=CCN(CC=C)CCc1c[nH]c2cccc(O)c12 [4-HO-DALT, 4-hydroxy-N,N-diallyltryptamine] | > 10 | 5.21 | > 10 | > 10 | 0.213 | 0.652 | > 10000 | > 10000 | 0.238 | > 10 |  |  | 2.59 | > 10 | 1.57 | > 10000 | > 10 | > 10000 | 2.11 | > 10 | HTR Counts (mean ± SEM) ([11]; 0.875 mg/kg IP, duration 5 min): 4.0 ± 3.3; HTR Counts (mean ± SEM) ([11]; 1.75 mg/kg IP, duration 5 min): 9.2 ± 3.7; HTR Counts (mean ± SEM) ([11]; 3.5 mg/kg IP, duration 5 min): 28.6 ± 4.1; HTR Counts (mean ± SEM) ([11]; 7 mg/kg IP, duration 5 min): 31.6 ± 4.9; HTR Counts (mean ± SEM) ([11]; 14 mg/kg IP, duration 5 min): 24.6 ± 4.7; activity in the HTR assay (in words) [11]: active; ED50 [11, 23]: 2.6 mg/kg; ED50 [11, 24]: 8.3 µmol/kg |
| C=CCN(CC=C)CCc1c(-c2ccccc2)[nH]c2ccccc12 [2-Ph-DALT, 2-phenyl-N,N-diallyltryptamine] | 0.388 | > 10 | 0.589 | 1.67 | 0.068 | 0.013 | 1000 | 367 | > 10 | 0.746 | 2.8 ± 0.5 | 3.6 ± 1.3 | 0.192 | 0.717 | 0.342 | 1930 | 0.243 | 6790 | 0.278 | > 10 | 5-HT2A binding affinity, fold higher than the affinity of DALT [6]: 54 fold; 5-HT2A binding affinity, fold higher than the affinity of any other DALT derivative ([6]; relative to any other DALT derivative): at least 10 fold; Ki ([7]; Ki value, bound stated): < 10000 nM; Ki ([8]; Ki value, bound stated): < 10000 nM; HTR Counts (mean ± SEM) ([11]; 3.5 mg/kg IP, duration 30 min): 1.4 ± 0.5; HTR Counts (mean ± SEM) ([11]; 7 mg/kg IP, duration 30 min): 2.0 ± 0.5; HTR Counts (mean ± SEM) ([11]; 14 mg/kg IP, duration 30 min): 1.2 ± 0.5; activity in the HTR assay (in words) [11]: abolished activity; activity in the HTR assay (in words) ([11]; listed as 2-Phenyl-DALT): did not induce the HTR; Ki ([15]; Ki value, peripheral benzodiazepine receptors, bound stated): < 10000 nM; Ki ([17]; Ki value, δ-opioid, bound stated): < 10000 nM |
